Source: US20250228915A1, “DISTINCT CD8+ T CELL PROGRAMMING IN THE TUMOR MICROENVIRONMENT CONTRIBUTES TO SEX BIAS IN CANCER” (Ohio State Innovation Foundation, priority 2022, published 2025)

Key:
[1] = tested on: human Tcf7 promoter in EGFP-C1-AR overexpressing HEK293FT cells; settings: AR-transfected HEK293FT, 24 h, 500 ng/mL testosterone or 50 nM DHT; AR dependent (FIG. 7E)
Description: WT or mutated human Tcf7 promoter sequence of one kb upstream from its transcriptional start site was cloned into the pMCS-Red Firefly Luciferase vector (Thermo Fisher). Mutants lacked individual (“Mut 1-4”) or all putative AR binding sites. Briefly, 40,000 HEK293FT cells were grown on a 96 well plate at 80% confluence. […] Renilla luciferase gene expression was used to ensure transfection efficiency (Thermo Fisher). Twenty four hours after transfection, cells were treated with 500 ng/ml testosterone or 50 nM DHT for another 24 hours. Cells were then harvested and luciferase activity was analyzed by using Dual-Luciferase Reporter Assay System (Promega).

[2] = tested on: AR-overexpressing Jurkat cells; settings: 100 nM, prolonged stimulation over 9 days (FIG. 14B)
Description: Empty vector and androgen receptor-expressing Jurkat cells were seeded into six well plates (Gibco) at 2×10^5 cells per well and treated with 100 nM testosterone (Sigma) or DHT (Millipore), alongside methanol vehicle control (Thermo Fisher). Every three days, cells were counted using the BioRad TC20 automated cell counter, passaged, and re-stimulated with the same androgen concentrations over a time course of 3, 6, and 9 days.

[3] = tested on: MB49 mouse urothelial carcinoma cells; experiment: MB49 tumor growth in WT mice under daily vehicle or enzalutamide; assay type: in vivo; settings: male WT mice, MB49 subcutaneous; enzalutamide 25 mg/kg daily oral gavage from Day 5 vs vehicle (FIG. 5J)
Description: MB49 (a gift from C. Voelkel-Johnson from the Medical University of South Carolina) and BKL171 mouse urothelial carcinoma cells were cultured in Dulbecco's modified Eagle's medium with 10% heat-inactivated fetal bovine serum and 1% penicillin/streptomycin. 5×10^5 tumor cells were resuspended in 100 μL ice cold PBS for subcutaneous injection into the right flank of a mouse. For antibody-mediated T cell depletion experiments, mice were injected intraperitoneally with 200 μg of anti-mouse CD4 (Clone GK1.5, BioXCell) and/or CD8 neutralizing antibodies (Clone 53-6.7, BioXCell), followed by 100 μg thereafter on the indicated days. For experiments involving enzalutamide, mice were treated daily with either vehicle control or enzalutamide (25 mg/kg) in 1% carboxymethylcellulose with 0.1% Tween 80 and 2.5% DMSO through oral gavage starting on Day 5 post MB49 subcutaneous injection. Tumor surface area (width×length mm^2) was measured using an electronic caliper starting on Day 4 post implantation.

[4] = tested on: CD8+ T cells (Tcf7, Ar transcripts); experiment: qPCR of naïve CD8+ T cells stimulated with testosterone, type I IFN or both; assay type: cell-based, mouse
Description: Mouse spleens and tumors were mechanically disrupted, with the latter additionally subjected to digestion with 1 mg/mL Collagenase D (Roche) for 30 min at 37° C. while shaken at 125 rpm. Excess volume of ice-cold PBS with 2% bovine serum albumin was used to inactivate the enzymatic activity. Red Blood Cell Lysis Buffer (BioLegend) was utilized on tissues before they were passed through 70 µm filters to prepare single cell suspensions. For cytokine production experiments, cells were re-stimulated by 50 ng/mL PMA (Sigma), 1 μg/mL Ionomycin (Sigma) and 1× Brefeldin A (BioLegend) in a 48-well plate for 2 hours at 37° C. For in vitro cultures, purified CD8^+ T cells were left untreated or stimulated with 50 ng/mL testosterone (Sigma) and/or 50 U/mL mouse IFN alpha A (PBL Assay Science). Cells were stained at 4° C. with eFluor506 fixable viability dye for 10 minutes (Invitrogen), followed by extracellular surface markers and FcR block concurrently for 30 minutes. All intracellular staining was performed using the Foxp3 transcription factor staining kit (Invitrogen) according to the manufacturer's instructions. […]
RNA was extracted from FACS/MACS-isolated CD8^+ T cells and reverse-transcribed using RNeasy Micro Kit (Qiagen) and SuperScript™ IV VILO™ Master Mix with ezDNase™ Enzyme (ThermoFisher Scientific), respectively. Quantitative PCR was performed with the following primers: […]

SMILES	Tcf7 promoter activity (luciferase) [1]	proliferation [2]	tumor growth [3]	Ar expression (qPCR) ([4]; female CD8+ T cells, testosterone (FIG. 7D))	Tcf7 expression (qPCR) ([4]; male CD8+ T cells, acute testosterone exposure, 6 hours (FIG. 7D))
C[C@]12CCC(=O)C[C@@H]1CC[C@@H]1[C@@H]2CC[C@]2(C)[C@@H](O)CC[C@@H]12 [DHT, dihydrotestosterone]	stimulated	decreased proliferation	–	–	–
CNC(=O)c1ccc(N2C(=S)N(c3ccc(C#N)c(C(F)(F)F)c3)C(=O)C2(C)C)cc1F [enzalutamide]	–	–	partial protection against tumor growth	–	–
C[C@]12CC[C@H]3[C@@H](CCC4=CC(=O)CC[C@@]43C)[C@@H]1CC[C@@H]2O [testosterone]	stimulated	decreased proliferation	–	induction of Ar expression	significantly increased
